Laboratory results as given in patent US8273404B2, “Extraction of solvents from drug containing polymer reservoirs” (Cordis Corporation, priority 2008, dated 2012).

Key:
[1] = assay type: physicochemical; conditions: 0.02 weight percent BHT per total basecoat solids
Excerpt: Referring to FIG. 113, there is illustrated in graphical format, the results of the same drug screening as described above with the solution applied to a cobalt-chromium, 18 mm stent. In this test, two sets of solution samples were utilized, one with sirolimus and polymer solution containing the antioxidant and one with sirolimus and polymer solution containing no antioxidant. The antioxidant utilized was 0.02 weight percent BHT per total basecoat solids. The test was utilized to determine the percent drug content change over a time period of 0 to 12 weeks under two conditions; namely, 40° C. with 75 percent relative humidity, and ambient conditions (25° C.).

LDL = experiment: Ex vivo LDL peroxidation (diene conjugates after addition of copper ions) of MVP patients; design: species or system human; conditions: treatment for one month, preliminary results
Excerpt: Dietary intervention and smoking habits were similar in all groups. Probucol may simply be a more powerful antioxidant than the combination of vitamins. To this regard, preliminary results from the continuous spectrophotometric monitoring of diene conjugates in LDL after the addition of copper ions to the isolated lipoprotein ex vivo (Free Radic Res Commun 1989; 6:67-75) of MVP patients are noteworthy.

[2] = tested on: coronary arteries after balloon angioplasty; experiment: IVUS substudy of the MVP restenosis trial (lumen, wall, EEM areas after balloon angioplasty); assay type: in vivo, human
Method: The present invention concerns the IVUS substudy from the MVP restenosis trial. MVP was a double-blind placebo-controlled randomized clinical trial with four study groups. The protocol was approved by the Montreal Heart Institute institutional review board. The MVP study design, inclusion and exclusion criteria have been previously described (N Engl J Med 1997; 365-372). Briefly, patients referred for elective coronary angioplasty were evaluated at least 30 days prior to their scheduled procedure. Eligible patients were asked to provide written informed consent. Patients were eligible if they were scheduled to undergo standard balloon angioplasty on at least one native coronary artery and had at least one de novo target lesion with luminal narrowing of fifty percent or more by caliper measurements.
Beginning thirty days prior to scheduled angioplasty, patients were randomly assigned to receive either probucol alone, multivitamins alone, the combination of probucol and multivitamins, or placebo. Probucol 500 mg or matched placebo was administered twice daily. The multivitamin complex, consisting of vitamin E 700 IU, vitamin C 500 mg and beta-carotene 30,000 IU, or matched placebo was also administered in one tablet twice daily. All patients received an extra dose of probucol 1000 mg and/or vitamin E 2000 IU and/or matched placebos twelve hours before angioplasty, according to randomization assignment. […] All patients received aspirin 325 mg daily started at least thirty days before procedure and continued for the study period. Balloon angioplasty was performed according to standard techniques. Intracoronary nitroglycerin (0.3 mg) was given for each target artery for both pre- and post-dilatation angiography and at follow-up. The sequence of contrast injections with the exact degree of angulation was recorded and used for every angiogram. Coronary arteriograms (pre-, post-procedure, and final follow-up) were analyzed together using the Coronary Measurement System (CMS), as previously reported. Patient follow-up included clinical evaluation, exercise treadmill testing, blood chemistry, pill count and drug level measurements, and dietary assessment and intervention. Patients were readmitted for follow-up coronary angiography at five to seven months. […]
IVUS examinations were performed using 30 MHZ, 3.5 French mechanical (1800 rpm) ultrasound catheters (Boston Scientific, Natick, Mass.) and a dedicated imaging console (Hewlett Packard, Andover, Mass.) (Curr Opin Cardiol 1994; 9:627-633). […] IVUS imaging was monitored by an experienced cardiologist, but the angioplasty operator was blinded to ultrasound results to avoid altering standard balloon angioplasty practice. […] One angiographic view was recorded on videotape before beginning pullback of the IVUS catheter. […]

[3] = tested on: coronary restenosis after angioplasty; experiment: MultiVitamins and Probucol (MVP) randomized clinical trial, angiographic and clinical endpoints; assay type: in vivo, human
Excerpt: It was not possible to determine with angiography alone whether probucol acted via inhibition of tissue hyperplasia or improvement in vascular remodeling. […] In addition, the invention enables the skilled practitioner to use probucol in conjunction with other percutaneous coronary interventions such as stenting if it is deemed appropriate.
Beginning thirty days prior to scheduled angioplasty, patients were randomly assigned to receive either probucol alone, multivitamins alone, the combination of probucol and multivitamins, or placebo. Probucol 500 mg or matched placebo was administered twice daily. The multivitamin complex, consisting of vitamin E 700 IU, vitamin C 500 mg and beta-carotene 30,000 IU, or matched placebo was also administered in one tablet twice daily. All patients received an extra dose of probucol 1000 mg and/or vitamin E 2000 IU and/or matched placebos twelve hours before angioplasty, according to randomization assignment. […] All patients received aspirin 325 mg daily started at least thirty days before procedure and continued for the study period. Balloon angioplasty was performed according to standard techniques. Intracoronary nitroglycerin (0.3 mg) was given for each target artery for both pre- and post-dilatation angiography and at follow-up. The sequence of contrast injections with the exact degree of angulation was recorded and used for every angiogram. Coronary arteriograms (pre-, post-procedure, and final follow-up) were analyzed together using the Coronary Measurement System (CMS), as previously reported. Patient follow-up included clinical evaluation, exercise treadmill testing, blood chemistry, pill count and drug level measurements, and dietary assessment and intervention. Patients were readmitted for follow-up coronary angiography at five to seven months. Patients in whom arteriography was performed for clinical reasons before the fifth month returned for repeat angiographic examination at five to seven months if no definite angiographic restenosis was present on at least one dilated site. During follow-up, patients with recurrence or exacerbation of anginal symptoms were treated with medical therapy or revascularization procedures (reangioplasty or Coronary Bypass Surgery) as clinically indicated. Patients with angiographic restenosis (lesion>50%. at follow-up) without clinical evidence of ischemia were not subjected to further interventional procedures.
Probucol is one of the first pharmacological interventions shown to prevent coronary restenosis after balloon angioplasty. However, its mechanism of action and its efficacy as a vascular remodeling agent has never been studied. […]

SMILES | effect on sirolimus drug degradation on coated stent [1] | protection against LDL oxidation (lag phase for LDL peroxidation) (LDL) | reduction in lumen loss compared to non-probucol treated patients ([2]; IVUS, patients receiving probucol) [mm^2] | Lumen area, Follow-up Post PTCA (change) ([2]; IVUS, per segment analysis) [mm^2] | reduction in lumen loss compared to the placebo group only ([2]; IVUS, probucol given alone) [mm^2] | Lumen area, Follow-up Post PTCA (change) ([2]; efficacy analysis in compliant patients) [mm^2] | patients in whom restenosis still occurred ([3]; probucol alone) | reduction of angiographic lumen loss compared to placebo ([3]; probucol given alone) | reduction of restenosis rate per segment compared to placebo ([3]; probucol given alone) | reduction of the need for repeat angioplasty at 6 month compared to placebo ([3]; probucol given alone)
Cc1cc(C(C)(C)C)c(O)c(C(C)(C)C)c1 [BHT, Butylated Hydroxytoluene] | lessens drug degradation at both 8 weeks and 12 weeks |  |  |  |  |  |  |  |  | 
CC(C)(Sc1cc(C(C)(C)C)c(O)c(C(C)(C)C)c1)Sc1cc(C(C)(C)C)c(O)c(C(C)(C)C)c1 [Probucol Alone, 4,4′-([1-methylethylidene)bis(thio)]bis-[2,6-bis(1,1-dimethylethyl)phenol]] |  | significantly greater protection against LDL oxidation than vitamins alone or the combination of probucol and vitamins | 0.79 | −0.15 ± 1.70 | 1.06 | −0.15 ± 1.70 | over twenty percent | sixty-eight percent | forty-seven percent | fifty-eight percent
